Experimental data reported in US20240175881A1, “SIMPLIFIED METHODS FOR MEASURING LIVER FUNCTION” (HepQuant, LLC, priority 2022, published 2024).

Assays:
[1] = tested on: patients with well-compensated (Child-Pugh A) NASH cirrhosis; assay: Risk ACE from simplified cholate tests (SHUNT V2.0, DuO) in open-label resmetirom arm of MAESTRO-NAFLD-1; assay type: in vivo, human
Description: MAESTRO-NAFLD-1 (NCT04197479) was a 52-week Phase 3 trial to evaluate the safety and tolerability of resmetirom, a thyroid hormone receptor-β agonist being studied for the treatment of NASH. (Harrison et al., Lancet 2019, 394:2012-24). MAESTRO-NAFLD-1 included an open-label active resmetirom treatment arm in patients with well-compensated (Child-Pugh A [CP-A]) NASH cirrhosis (FIG. 23).
Methods: Subjects (n=34) with compensated NASH cirrhosis underwent baseline testing and subsequent retesting at 28 and 48 weeks. Eligibility included at least 3 metabolic risk factors and NASH cirrhosis diagnosed by liver biopsy or accepted criteria
AUCs were calculated by a compartmental model (McRae et al., 2023 Translational Res. 252:53-63). For SHUNT V2.0: IV and oral data at 20 and 60 minutes were employed. For DuO: only oral data at 20 and 60 minutes were employed.
Risk ACE was calculated for each subject from the baseline and weeks 28 and 48 disease severity index (DSI). A Poisson model (Risk ACE) estimated the annual clinical event rate based on 220 subjects with 52 clinical events from the HALT-C Trial. The result is an event rate (clinical events per person-year). • Model A: Relationship with baseline DSI (denoted by dsi0):
Y=β0+β1dsi0 • Model D: Relationship with baseline DSI and change in DSI (denoted dsiΔ)
Difference from baseline is represented by the difference of Risk ACE Model A and Model D (Table 26).

[2] = tested on: subjects with Child-Pugh A cirrhosis and a liver stiffness measurement of >15 kPa; conditions: HepQuant SHUNT test; cited from earlier work

| SMILES | subjects in whom Risk ACE decreased ([1]; DuO test, 28 weeks vs baseline) | subjects in whom Risk ACE decreased ([1]; DuO test, 48 weeks vs baseline) | Δ Risk ACE ([1]; DuO test, Baseline - Week 28 of resmetirom) | Δ Risk ACE ([1]; DuO test, Baseline - Week 28 of resmetirom, listed as resmetirom) | Δ Risk ACE ([1]; DuO test, Baseline - Week 48 of resmetirom) | Δ Risk ACE ([1]; DuO test, Baseline - Week 48 of resmetirom, listed as resmetirom) | subjects in whom Risk ACE decreased ([1]; SHUNT V2.0 test, 28 weeks vs baseline) | subjects in whom Risk ACE decreased ([1]; SHUNT V2.0 test, 48 weeks vs baseline) | Δ Risk ACE ([1]; SHUNT V2.0 test, Baseline - Week 28 of resmetirom) | Δ Risk ACE ([1]; SHUNT V2.0 test, Baseline - Week 28 of resmetirom, listed as resmetirom) | Δ Risk ACE ([1]; SHUNT V2.0 test, Baseline - Week 48 of resmetirom) | Δ Risk ACE ([1]; SHUNT V2.0 test, Baseline - Week 48 of resmetirom, listed as resmetirom) | estimated clinical event rate ([1]; simplified cholate tests, after 28 weeks of resmetirom) | hepatic function [2] |
| --- | --- | --- | --- | --- | --- | --- | --- | --- | --- | --- | --- | --- | --- | --- |
| CC(C)c1cc(Oc2c(Cl)cc(-n3nc(C#N)c(=O)[nH]c3=O)cc2Cl)n[nH]c1=O [Resmetirom] | 21 of 23 | 19 of 23 | −0.0182 clinical events per person-year | significant decrease | −0.0355 clinical events per person-year | −0.0355 clinical events per person-yea | 20 of 23 | 19 of 23 | −0.0174 clinical events per person-year | −0.0170 clinical events per person-yea | −0.0325 clinical events per person-year | −0.0325 clinical events per person-yea | reduction in estimated clinical event rate | – |
| CCOc1c(C(=O)O)cnn1-c1cccc(-c2cccc(C)c2OCc2ccc3c(c2C)CCN(C2CCOCC2)C3)n1 [BI 685509] | – | – | – | – | – | – | – | – | – | – | – | – | – | improves hepatic function |
